SMILES strings stand for the structures.

This experiment has as its target T1, wildtype HIV-1 protease (Human immunodeficiency virus type 1 group M subtype B, UniProt P04585).
T1 construct: preincubated with the HIV-1 protease (wild type) enzyme in assay buffer; made in house; host or cells: Escherichia coli
The experiment can be described thus: Inhibition of microbial expressed HIV protease (Pepcleav). The format is biochemical. The settings on record: wild type HIV-1 protease expressed in E. coli, 20 pM enzyme, 400 micromolar peptide substrate, pH 5.5, LC-MS readout; mean of at least two independent experiments. As for the experimental part: Assay for Inhibition of Microbial Expressed HIV Protease (“Pepcleav”)
Studies of the inhibition of the wildtype HIV-1 protease (which was expressed in Escherichia coli) were carried out with a peptide substrate [Val-Ser-Gln-Asn-(βnaphthyl)Ala-Pro-Ile-Val (SEQ ID NO:1)]. The inhibitor was first preincubated with the HIV-1 protease (wild type) enzyme in assay buffer (50 mM sodium acetate, pH 5.5, 100 mM NaCl, and 0.1% BSA) for 30 minutes at room temperature. Substrate was added to 400 micromolar in a total volume of 20 microliters containing 20 picomolar HIV-1 protease (final) and the reaction was incubated for 1 hour at 30° C. The reaction was quenched with the addition of formic acid and indinavir to 0.012% and 150 nM final concentrations, respectively. The product formation was determined after separation of product and substrate on a Zorbax Eclipse XDB-C18 column connected to an API 4000 mass spectrometer (Applied Biosystems) with multiple reaction monitoring (transitions were 644.5/428.9 and 615.4/422.2 (M1/M3) for product and indinavir respectively). The extent of inhibition of the reaction was determined from the peak area of the products. Analysis of the products, independently synthesized, provided quantitation standards and confirmation of the product composition.
The term IC50 denotes the concentration that inhibits the measured activity by half. Take `COC(=O)N[C@H](C(=O)Nc1ccccc1CC[C@@H]1CN[C@H](C)[C@@H](CSc2nc3ncccc3[nH]2)O1)C(c1ccccc1)c1ccccc1` [Example 22, methyl N-[(1S)-1-benzhydryl-2-[[2-[2-[(2R,5R,6S)-6-(1H-imidazo[4,5-b]pyridin-2-ylsulfanylmethyl)-5-methyl-morpholin-2-yl]ethyl]phenyl]amino]-2-oxo-ethyl]carbamate]: 44.4 nM corresponded to half-maximal inhibition (IC50). As to `COC(=O)N[C@H](C(=O)Nc1ccccc1CC[C@@H]1CN[C@H](C)[C@@H](CSc2ncnc3c2ncn3[C@@H]2O[C@H](CO)[C@@H](O)[C@H]2O)O1)C(c1ccccc1)c1ccccc1` [Example 23, methyl N-[(1S)-1-benzhydryl-2-[[2-[2-[(2R,5R,6S)-6-[[9-[(2R,3R,4S,5R)-3,4-dihydroxy-5-(hydroxymethyl)tetrahydrofuran-2-yl]purin-6-yl]sulfanylmethyl]-5-methyl-morpholin-2-yl]ethyl]phenyl]amino]-2-oxo-ethyl]carbamate], the 50% inhibitory concentration (IC50) turned out to be 51.9 nM. To `COC(=O)N[C@H](C(=O)Nc1ccccc1CC[C@@H]1CN[C@H](C)[C@@H](CSc2nc[nH]n2)O1)C(c1ccccc1)c1ccccc1` [Example 24, methyl N-[(1S)-1-benzhydryl-2-[[2-[2-[(2R,5R,6S)-5-methyl-6-(1H-1,2,4-triazol-3-ylsulfanylmethyl)morpholin-2-yl]ethyl]phenyl]amino]-2-oxo-ethyl]carbamate] belongs 58.3 nM; to `COC(=O)N[C@H](C(=O)Nc1ccccc1CC[C@@H]1CN[C@H](C)[C@@H](CSc2nc(N)c3cn[nH]c3n2)O1)C(c1ccccc1)c1ccccc1` [Example 25, methyl N-[(1S)-1-[[2-[2-[(2R,5R,6S)-6-[(4-amino-1H-pyrazolo[3,4-d]pyrimidin-6-yl)sulfanylmethyl]-5-methyl-morpholin-2-yl]ethyl]phenyl]carbamoyl]-2,2-diphenyl-ethyl]carbamate], 100 nM; to `COC(=O)N[C@H](C(=O)Nc1ccccc1CC[C@@H]1CN[C@H](C)[C@@H](CSc2nnc(CN3CCCC3)o2)O1)C(c1ccccc1)c1ccccc1` [Example 26, methyl N-[(1S)-1-benzhydryl-2-[[2-[2-[(2R,5R,6S)-5-methyl-6-[[5-(pyrrolidin-1-ylmethyl)-1,3,4-oxadiazol-2-yl]sulfanylmethyl]morpholin-2-yl]ethyl]phenyl]amino]-2-oxo-ethyl]carbamate], 124 nM. Under `COC(=O)N[C@H](C(=O)Nc1ccccc1CC[C@@H]1CN[C@H](C)[C@@H](CSc2nc(C)cc(C)c2C#N)O1)C(c1ccccc1)c1ccccc1` [Example 27, methyl N-[(1S)-1-benzhydryl-2-[[2-[2-[(2R,5R,6S)-6-[(3-cyano-4,6-dimethyl-2-pyridyl)sulfanylmethyl]-5-methyl-morpholin-2-yl]ethyl]phenyl]amino]-2-oxo-ethyl]carbamate] stands 124 nM; under `COC(=O)N[C@H](C(=O)Nc1ccccc1CC[C@@H]1CN[C@H](C)[C@@H](CSc2nnnn2CCN(C)C)O1)C(c1ccccc1)c1ccccc1` [Example 28, methyl N-[(1S)-1-benzhydryl-2-[[2-[2-[(2R,5R,6S)-6-[[1-(2-dimethylaminoethyl)tetrazol-5-yl]sulfanylmethyl]-5-methyl-morpholin-2-yl]ethyl]phenyl]amino]-2-oxo-ethyl]carbamate], 214 nM. To `COC(=O)N[C@H](C(=O)Nc1ccccc1CC[C@@H]1CN[C@H](C)[C@@H](CSc2ncc[nH]2)O1)C(c1ccccc1)c1ccccc1` [Example 29, methyl N-[(1S)-1-benzhydryl-2-[[2-[2-[(2R,5R,6S)-6-(1H-imidazol-2-ylsulfanylmethyl)-5-methyl-morpholin-2-yl]ethyl]phenyl]amino]-2-oxo-ethyl]carbamate] belongs 235 nM; to `COC(=O)N[C@H](C(=O)Nc1ccccc1CC[C@@H]1CN[C@H](COC(C)=O)[C@@H](CSc2nnc(-c3ccncc3)o2)O1)C(c1ccccc1)c1ccccc1` [Example 30, [(2S,3R,6R)-6-[2-(2-{[N-(methoxycarbonyl)-β-phenyl-L-phenylalanyl]amino}phenyl)ethyl]-2-({[5-(pyridin-4-yl)-1,3,4-oxadiazol-2-yl]sulfanyl}methyl)morpholin-3-yl]methyl acetate], 0.0334 nM. For the compound `COC(=O)N[C@H](C(=O)Nc1ccccc1CC[C@@H]1CN[C@H](CO)[C@@H](CSc2nnc(-c3ccncc3)o2)O1)C(c1ccccc1)c1ccccc1` [Example 31, N-(2-{2-[(2R,5R,6S)-5-(hydroxymethyl)-6-({[5-(pyridin-4-yl)-1,3,4-oxadiazol-2-yl]sulfanyl}methyl)morpholin-2-yl]ethyl}phenyl)-Nα-(methoxycarbonyl)-β-phenyl-L-phenylalaninamide], the IC50 amounted to 0.171 nM. In turn, `COC(=O)N[C@H](C(=O)Nc1ccccc1CC[C@@H]1CN[C@H](c2ncc[nH]2)[C@@H](CSc2nnc(-c3ccncc3)o2)O1)C(c1ccccc1)c1ccccc1` [Example 32, N-(2-{2-[(2R,5R,6S)-5-(1H-imidazol-2-yl)-6-({[5-(pyridin-4-yl)-1,3,4-oxadiazol-2-yl]sulfanyl}methyl)morpholin-2-yl]ethyl}phenyl)-Nα-(methoxycarbonyl)-β-phenyl-L-phenylalaninamide] displayed a half-inhibitory concentration (IC50) of 0.65 nM.

As to `COC(=O)N[C@H](C(=O)Nc1ccccc1CC[C@@H]1CN[C@H](COCc2ccccc2)[C@@H](CSc2nnc(-c3ccncc3)o2)O1)C(c1ccccc1)c1ccccc1` [Example 33], the IC50 amounted to 0.472 nM.

As for `COC(=O)N[C@H](C(=O)Nc1ccccc1CC[C@@H]1CN[C@H](COC(=O)NCc2ccc(F)cc2)[C@@H](CSc2nnc(-c3ccncc3)o2)O1)C(c1ccccc1)c1ccccc1` [Example 35, N-(2-{2-[(2R,5R,6S)-5-({[(4-fluorobenzyl)carbamoyl]oxy}methyl)-6-({[5-(pyridin-4-yl)-1,3,4-oxadiazol-2-yl]sulfanyl}methyl)morpholin-2-yl]ethyl}phenyl)-Nα-(methoxycarbonyl)-β-phenyl-L-phenylalaninamide], half-maximal inhibition (IC50) required 0.0304 nM.

The compound `C[C@@H]1O[C@H](CCc2c(F)cccc2NC(=O)[C@@H](N)C(c2ccc(F)cc2)c2ccc(F)cc2)CN[C@@H]1COC(N)=O` [Example 36, N-[2-(2-{(2R,5R,6S)-5-[(carbamoyloxy)methyl]-6-methylmorpholin-2-yl}ethyl)-3-fluorophenyl]-4-fluoro-β-(4-fluorophenyl)-L-phenylalaninamide] yielded a half-inhibitory concentration (IC50) of 39 nM. Under `C[C@@H]1O[C@H](CCc2c(F)cccc2NC(=O)[C@@H](N)C(c2ccc(F)cc2)c2ccc(F)cc2)CN[C@@H]1COC(=O)N[C@@H](C)C(F)(F)F` [Example 37, 4-fluoro-N-[3-fluoro-2-(2-{(2R,5R,6S)-6-methyl-5-[({[(1S)-2,2,2-trifluoro-1-methylethyl]carbamoyl}oxy)methyl]morpholin-2-yl}ethyl)phenyl]-β-(4-fluorophenyl)-L-phenylalaninamide] stands 3.1 nM; under `CC[C@@H](NC(=O)OC[C@H]1NC[C@@H](CCc2c(F)cccc2NC(=O)[C@@H](N)C(c2ccc(F)cc2)c2ccc(F)cc2)O[C@H]1C)c1ccc(F)cc1` [Example 38, 4-fluoro-N-[3-fluoro-2-(2-{(2R,5R,6S)-5-[({[(1R)-1-(4-fluorophenyl)propyl]carbamoyl}oxy)methyl]-6-methylmorpholin-2-yl}ethyl)phenyl]-β-(4-fluorophenyl)-L-phenylalaninamide], 4.4 nM.

For the origin of these results see patent US9834526B2 (MERCK SHARP & DOHME CORP., priority 2013, dated 2017).
